We go through two compounds from publication PMC10714390, “Quinoline Compounds Targeting the c-Ring of ATP Synthase Inhibit Drug-Resistant Pseudomonas aeruginosa” (ACS Infectious Diseases, 2023).

SMILES strings stand for the structures.

This assay concerns the target luciferase (Photinus pyralis, UniProt P08659). Nature of the assay: Inhibition of luciferase by quinoline compounds. The class given is biochemical. The conditions noted are these: after 500-fold dilution; Figure S4. The method, then: Continuous ATP synthesis activity of inverted membrane vesicles was measured using a luciferin/luciferase luminescence assay as previously described.[22] Inhibition of ATP synthesis activity by test compounds was determined using an end point assay essentially as previously described.[18],[26] In this assay, the synthesis reaction was initiated by 2.5 mM NADH, proceeded for 10 min, and was stopped with 1% trichloroacetic acid, 2 mM CCCP, and 10 mM EDTA. Samples from each reaction were diluted 500-fold prior to the addition of luciferase since quinoline compounds are known to inhibit luciferase.[27] This dilution was sufficient to minimize inhibition of luciferase (Figure S4). Each replicate set included a positive control containing DMSO with no compound and a negative control containing carbonyl cyanide m-chlorophenyl hydrazone. Luminescence values were corrected for the background by subtracting the negative control and then normalized to the positive control within the same replicate. Dose–response curves were fit using eq 1, where activity is the relative ATP synthesis activity, [I] is the concentration of inhibitor in μg/mL, and n is the Hill coefficient. [drawing 1] 1
Table S2: All IC50 values and Hill coefficients for dose response fits of inhibition of ATP synthesis activity. […]
luciferase) at the indicated concentrations, and luminescence was measured after the addition of ATP to […]

luciferase, sequence (P08659 whole entry): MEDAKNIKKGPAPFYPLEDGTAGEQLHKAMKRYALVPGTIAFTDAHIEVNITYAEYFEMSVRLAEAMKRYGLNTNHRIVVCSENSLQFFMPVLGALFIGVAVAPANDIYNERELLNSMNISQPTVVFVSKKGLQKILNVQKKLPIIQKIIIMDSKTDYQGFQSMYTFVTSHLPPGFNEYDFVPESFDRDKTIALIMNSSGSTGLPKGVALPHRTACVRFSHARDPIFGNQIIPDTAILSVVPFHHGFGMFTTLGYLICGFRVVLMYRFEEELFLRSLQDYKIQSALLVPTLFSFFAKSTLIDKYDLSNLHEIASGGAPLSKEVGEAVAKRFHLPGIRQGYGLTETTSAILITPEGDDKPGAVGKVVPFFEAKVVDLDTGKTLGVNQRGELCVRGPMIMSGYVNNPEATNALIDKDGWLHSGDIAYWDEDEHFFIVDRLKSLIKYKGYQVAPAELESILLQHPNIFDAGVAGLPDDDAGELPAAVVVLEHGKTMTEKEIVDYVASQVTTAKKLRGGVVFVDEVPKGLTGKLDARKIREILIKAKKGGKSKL

Turning to `CSc1nc2ccccc2cc1CNCc1ccc(CN(C)C)cc1` [Compound 4, N,N-Dimethyl-1-(4-((((2-(methylthio)quinolin-3-yl)methyl)amino)methyl)phenyl)methanamine], the “inhibition of luciferase, in words” value is given as “did not significantly inhibit”.
With `CN(C)Cc1ccc(CNCc2cc3ccccc3nc2SCc2ccccc2)cc1` [Compound 5, 1-(4-((((2-(Benzylthio)quinolin-3-yl)methyl)amino)methyl)phenyl)-N,N-dimethylmethanamine], the “inhibition of luciferase, in words” value is “did not significantly inhibit”.
